# Experimental data as given in patent US8470810B2, “Heterocyclic compounds suitable for treating disorders that respond to modulation of the dopamine D3 receptor” (Abbott GmbH & Co. KG, priority 2004, dated 2013).
# Tests used:
# [1] = biological target: T1, human dopamine D3 receptors (Homo sapiens, UniProt P35462); assay: Dopamine D3 receptor binding, displacement of [125I]-iodosulpride; settings: for Ki: membranes of HEK-293 cells stably expressing human D3, 0.1 nM [125I]-iodosulpride, 25° C., 60 minutes; for Ki(D2)*/Ki(D3)*: selectivity ratio of the receptor binding constants D2 over D3
# T1 construct: expressed in transfected cells
# T1 sequence (P35462 whole entry): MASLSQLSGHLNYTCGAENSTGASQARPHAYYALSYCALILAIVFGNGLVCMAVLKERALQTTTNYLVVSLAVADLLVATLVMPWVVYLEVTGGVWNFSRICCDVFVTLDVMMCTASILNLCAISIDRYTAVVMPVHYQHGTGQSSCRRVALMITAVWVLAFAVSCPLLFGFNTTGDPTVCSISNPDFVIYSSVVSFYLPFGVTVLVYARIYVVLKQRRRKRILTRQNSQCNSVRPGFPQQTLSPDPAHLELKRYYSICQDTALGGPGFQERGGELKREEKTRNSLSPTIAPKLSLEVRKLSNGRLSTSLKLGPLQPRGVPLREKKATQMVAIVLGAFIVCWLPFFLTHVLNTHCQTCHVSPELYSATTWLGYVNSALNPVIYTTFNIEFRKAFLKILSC
# Protocol: (§1) The substance to be tested was either dissolved in methanol/Chremophor® (BASFAG) or in dimethyl sulfoxide and then diluted with water to the desired concentration.
# (§2) Each assay mixture was run in triplicate.
# The incubation buffer contained 50 mM tris, 120 mM NaCl, 5 mM KCl, 2 mM CaCl2, 2 mM MgCl2 and 0.1% bovine serum albumin, 10 μM quinolone and 0.1% ascorbic acid (prepared fresh daily). The buffer was adjusted to pH 7.4 with HCl.
# (§3) After having been incubated at 25° C. for 60 minutes, the assay mixtures were filtered through a Whatman GF/B glass fiber filter under vacuum using a cell collecting device. The filters were transferred to scintillation viols using a filter transfer system. After 4 ml of Ultima Gold® (Packard) have been added, the samples were shaken for one hour and the radioactivity was then counted in a Beta-Counter (Packard, Tricarb 2000 or 2200CA). The cpm values were converted into dpm using a standard quench series and the program belonging to the instrument.
# (§4) The inhibition curves were analyzed by means of iterative nonlinear regression analysis using the Statistical Analysis System (SAS) which is similar to the “LIGAND” program described by Munson and Rodbard.
# (§5) The results of the receptro binding studies are expressed as receptor binding constants Ki(D2) and Ki(D3), respectively, as herein before described, and given in table 6.
# [2] = biological target: T2, human dopamine D2L receptors (long isoform) (Homo sapiens, UniProt P14416); assay: Dopamine D2L receptor binding, displacement of [125I] iodospiperone; settings: membranes of HEK-293 cells stably expressing human D2L; 0.01 nM [125I] iodospiperone; 25° C., 60 minutes; read-out: Ki(D2)*
# T2 construct: expressed in transfected cells
# T2 sequence (P14416 whole entry, canonical isoform): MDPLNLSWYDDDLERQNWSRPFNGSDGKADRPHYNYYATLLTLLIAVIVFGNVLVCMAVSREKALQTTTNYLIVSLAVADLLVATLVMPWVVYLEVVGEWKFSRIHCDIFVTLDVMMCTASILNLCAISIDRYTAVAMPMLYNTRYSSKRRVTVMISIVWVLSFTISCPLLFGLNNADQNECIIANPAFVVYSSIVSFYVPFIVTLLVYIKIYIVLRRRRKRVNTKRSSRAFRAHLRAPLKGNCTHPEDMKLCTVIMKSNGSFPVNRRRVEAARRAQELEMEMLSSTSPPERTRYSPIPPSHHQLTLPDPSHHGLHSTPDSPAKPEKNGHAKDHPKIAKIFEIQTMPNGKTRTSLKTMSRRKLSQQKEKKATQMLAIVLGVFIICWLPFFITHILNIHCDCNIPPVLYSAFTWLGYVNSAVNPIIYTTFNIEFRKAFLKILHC
# Protocol: as §1, §2
# The incubation buffer contained 50 mM tris, 120 mM NaCl, 5 mM KCl, 2 mM CaCl2, 2 mM MgCl2 and 0.1% bovine serum albumin. The buffer was adjusted to pH 7.4 with HCl.
# as §3, §4, §5
smiles,measurement,setting,value
"CCCN1CCC(c2ccc(NS(=O)(=O)c3ccc(C(C)C)cc3)cn2)C1 (single isomer, unassigned; (-)) [Example 131, (−)-N-[6-(1-Propyl-pyrrolidin-3-yl)-pyridin-3-yl]-4-isopropyl-benzene-sulfonamide]",Ki,[1],5.8 nM
same,Ki(D2)*/Ki(D3)*,[1],74
same,Ki,[2],430 nM
"CCCN1CC[C@@H](c2ccc(NS(=O)(=O)c3ccc(C(C)C)cc3)cc2)C1.Cl [Example 1, 4-Isopropyl-N-[4-((S)-1-propyl-pyrrolidin-3-yl)-phenyl]-benzenesulfonamide hydrochloride]",Ki,[1],0.09 nM
same,Ki(D2)*/Ki(D3)*,[1],89
same,Ki,[2],7.6 nM
"CCCN1CC[C@@H](c2ccc(NS(=O)(=O)c3ccc(C(C)(C)CC)cc3)cc2)C1.Cl [Example 2, 4-(1,1-Dimethyl-propyl)-N-[4-((S)-1-propyl-pyrrolidin-3-yl)-phenyl]-benzenesulfonamide hydrochloride]",Ki,[1],0.24 nM
same,Ki(D2)*/Ki(D3)*,[1],9
same,Ki,[2],2.3 nM
"C=CCN1CC[C@@H](c2ccc(NS(=O)(=O)c3ccc(C(C)C)cc3)cc2)C1.Cl [Example 3, 4-(Isopropyl)-N-[4-((S)-1-allyl-pyrrolidin-3-yl)-phenyl]-benzenesulfonamide hydrochloride]",Ki,[1],0.17 nM
same,Ki(D2)*/Ki(D3)*,[1],91
same,Ki,[2],13.8 nM
"C=CCN1CC[C@H](c2ccc(NS(=O)(=O)c3ccc(C(C)C)cc3)cc2)C1.Cl [Example 4, 4-(Isopropyl)-N-[4-((R)-1-allyl-pyrrolidin-3-yl)-phenyl]-benzenesulfonamide hydrochloride]",Ki,[1],3.16 nM
same,Ki(D2)*/Ki(D3)*,[1],127
same,Ki,[2],403 nM
"CCCN1CC[C@H](c2ccc(NS(=O)(=O)c3ccc(C(C)C)cc3)cc2)C1.Cl [Example 5, 4-(Isopropyl)-N-[4-((R)-1-propyl-pyrrolidin-3-yl)-phenyl]benzenesulfonamide hydrochloride]",Ki,[1],2.9 nM
same,Ki(D2)*/Ki(D3)*,[1],93
same,Ki,[2],267 nM
"CCCN1CC[C@@H](c2ccc(NS(=O)(=O)c3ccc(CC)cc3)cc2)C1.Cl [Example 6, 4-Ethyl-N-[4-((S)-1-propyl-pyrrolidin-3-yl)-phenyl]-benzenesulfonamide hydrochloride]",Ki,[1],0.45 nM
same,Ki(D2)*/Ki(D3)*,[1],45
same,Ki,[2],20.1 nM
"CCCN1CC[C@@H](c2ccc(NS(=O)(=O)c3ccc(OC(F)(F)F)cc3)cc2)C1.Cl [Example 7, 4-Trifluoromethoxy-N-[4-((S)-1-propyl-pyrrolidin-3-yl)-phenyl]-benzenesulfonamide hydrochloride]",Ki,[1],3.5 nM
same,Ki(D2)*/Ki(D3)*,[1],61
same,Ki,[2],212 nM
"CCCN1CC[C@@H](c2ccc(NS(=O)(=O)c3ccc(C(F)(F)F)cc3)cc2)C1.Cl [Example 8, 4-Trifluoromethyl-N-[4-((S)-1-propyl-pyrrolidin-3-yl)-phenyl]-benzenesulfonamide hydrochloride]",Ki,[1],4.1 nM
same,Ki(D2)*/Ki(D3)*,[1],57
same,Ki,[2],235 nM
"CCCN1CC[C@@H](c2ccc(NS(=O)(=O)c3ccc(OC(F)F)cc3)cc2)C1.Cl [Example 9, 4-Difluoromethoxy-N-[4-((S)-1-propyl-pyrrolidin-3-yl)-phenyl]-benzenesulfonamide hydrochloride]",Ki,[1],2.6 nM
same,Ki(D2)*/Ki(D3)*,[1],49
same,Ki,[2],129 nM
"CCCN1CC[C@@H](c2ccc(NS(=O)(=O)c3ccc(C)cc3)cc2)C1.Cl [Example 10, 4-Methyl-N-[4-((S)-1-propyl-pyrrolidin-3-yl)-phenyl]-benzenesulfonamide hydrochloride]",Ki,[1],1.9 nM
same,Ki(D2)*/Ki(D3)*,[1],60
same,Ki,[2],111 nM
"CCCN1CC[C@@H](c2ccc(NS(=O)(=O)c3ccc(OC)cc3)cc2)C1 [Example 12, 4-Methoxy-N-[4-((S)-1-propyl-pyrrolidin-3-yl)-phenyl]-benzenesulfonamide]",Ki,[1],3 nM
same,Ki(D2)*/Ki(D3)*,[1],43
same,Ki,[2],131 nM
"CCCN1CC[C@@H](c2ccc(NS(=O)(=O)c3ccc(Cl)cc3)cc2)C1 [Example 13, 4-Chloro-N-[4-((S)-1-propyl-pyrrolidin-3-yl)-phenyl]-benzenesulfonamide]",Ki,[1],3.1 nM
same,Ki(D2)*/Ki(D3)*,[1],54
same,Ki,[2],168 nM
"CCCN1CC[C@@H](c2ccc(NS(=O)(=O)c3ccc4c(c3)CCO4)cc2)C1 [Example 14, 2,3-Dihydro-benzofuran-5-sulfonic acid [4-((S)-1-propyl-pyrrolidin-3-yl)-phenyl]-amide]",Ki,[1],3.4 nM
same,Ki(D2)*/Ki(D3)*,[1],37
same,Ki,[2],123 nM
"CCCN1CC[C@@H](c2ccc(NS(=O)(=O)c3ccc(Br)c(F)c3)cc2)C1 [Example 15, 4-Bromo-3-fluoro-N-[4-((S)-1-propyl-pyrrolidin-3-yl)-phenyl]-benzenesulfonamide]",Ki,[1],1.9 nM
same,Ki(D2)*/Ki(D3)*,[1],39
same,Ki,[2],74 nM
"CCCN1CC[C@@H](c2ccccc2NS(=O)(=O)c2ccc(Br)c(F)c2)C1 [Example 16, 4-Bromo-3-fluoro-N-[2-((S)-1-propyl-pyrrolidin-3-yl)-phenyl]-benzenesulfonamide]",Ki,[1],12.6 nM
same,Ki(D2)*/Ki(D3)*,[1],31
same,Ki,[2],393 nM
"CCCN1CC[C@@H](c2ccc(NS(=O)(=O)c3ccc(Br)cc3F)cc2)C1 [Example 17, 4-Bromo-2-fluoro-N-[4-((S)-1-propyl-pyrrolidin-3-yl)-phenyl]-benzenesulfonamide]",Ki,[1],3.1 nM
same,Ki(D2)*/Ki(D3)*,[1],41
same,Ki,[2],126 nM
"CC(C)c1ccc(S(=O)(=O)Nc2ccc([C@@H]3CCNC3)cc2)cc1 [Example 18, 4-Isopropyl-N-[4-((S)-pyrrolidin-3-yl)-phenyl]-benzenesulfonamide]",Ki,[1],2.3 nM
same,Ki(D2)*/Ki(D3)*,[1],39
same,Ki,[2],90 nM
"C=C(C)c1ccc(S(=O)(=O)Nc2ccc([C@@H]3CCN(CCC)C3)cc2)c(F)c1 [Example 19, 2-Fluoro-4-isopropenyl-N-[4-((S)-1-propyl-pyrrolidin-3-yl)-phenyl]-benzenesulfonamide]",Ki,[1],0.48 nM
same,Ki(D2)*/Ki(D3)*,[1],26
same,Ki,[2],12.6 nM
"C=C(C)c1ccc(S(=O)(=O)Nc2ccc([C@@H]3CCN(CCC)C3)cc2)cc1F [Example 20, 3-Fluoro-4-isopropenyl-N-[4-((S)-1-propyl-pyrrolidin-3-yl)-phenyl]-benzenesulfonamide]",Ki,[1],0.3 nM
same,Ki(D2)*/Ki(D3)*,[1],24
same,Ki,[2],7.3 nM
"CCCN1CC[C@@H](c2ccc(NS(=O)(=O)c3ccc(C(C)C)cc3F)cc2)C1 [Example 21, 2-Fluoro-4-isopropyl-N-[4-((S)-1-propyl-pyrrolidin-3-yl)-phenyl]-benzenesulfonamide]",Ki,[1],0.4 nM
same,Ki(D2)*/Ki(D3)*,[1],27
same,Ki,[2],11 nM
"CCCN1CC[C@@H](c2ccc(NS(=O)(=O)c3ccc(OC(C)C)cc3)cc2)C1.Cl [Example 23, 4-Isopropoxy-N-[4-((S)-1-propyl-pyrrolidin-3-yl)-phenyl]-benzenesulfonamide hydrochloride]",Ki,[1],1.07 nM
same,Ki(D2)*/Ki(D3)*,[1],44
same,Ki,[2],46.6 nM
"CCCN1CC[C@@H](c2ccc(NS(=O)(=O)c3ccc4c(c3)CCC4)cc2)C1.Cl [Example 24, Indan-5-sulfonic acid [4-((S)-1-propyl-pyrrolidin-3-yl)-phenyl]-amide hydrochloride]",Ki,[1],1.2 nM
same,Ki(D2)*/Ki(D3)*,[1],60
same,Ki,[2],72 nM
"CCCN1CC[C@@H](c2ccc(NS(=O)(=O)c3ccc(Br)cc3)cc2)C1.Cl [Example 25, 4-Bromo-N-[4-((S)-1-propyl-pyrrolidin-3-yl)-phenyl]-benzenesulfonamide hydrochloride]",Ki,[1],1.6 nM
same,Ki(D2)*/Ki(D3)*,[1],60
same,Ki,[2],95 nM
"CCCN1CC(c2ccc(NS(=O)(=O)c3ccc(CCC(F)(F)F)cc3)cc2)C1 [Example 61, N-[4-(1-Propyl-azetidin-3-yl)-phenyl]-4-(3,3,3-trifluoro-propyl)-benzenesulfonamide]",Ki,[1],21.3 nM
"CCCN1CCC(c2ccc(NS(=O)(=O)c3ccc(C(C)C)cc3)c(F)c2)C1.Cl (stereo not drawn) [Example 134, N-[2-Fluoro-4-(1-propyl-pyrrolidin-3-yl)-phenyl]-4-isopropyl-benzenesulfonamide, hydrochloride]",Ki,[1],0.76 nM
same,Ki(D2)*/Ki(D3)*,[1],13
"CC(=O)O.COc1cc(C2CCNC2)ccc1NS(=O)(=O)c1ccc(C(C)C)cc1 (stereo not drawn) [Example 135, 4-Isopropyl-N-(2-methoxy-4-pyrrolidin-3-yl-phenyl)-benzenesulfonamide, acetate]",Ki,[1],0.85 nM
same,Ki(D2)*/Ki(D3)*,[1],17
"CCCN1CCC(c2ccc(NS(=O)(=O)c3ccc(C(C)C)cc3)c(OC)c2)C1.Cl (stereo not drawn) [Example 136, 4-Isopropyl-N-[2-methoxy-4-(1-propyl-pyrrolidin-3-yl)-phenyl]-benzenesulfonamide, hydrochloride]",Ki,[1],0.27 nM
same,Ki(D2)*/Ki(D3)*,[1],6
"C=CCN1CCC(c2ccc(NS(=O)(=O)c3ccc(C(C)C)cc3)c(OC)c2)C1.Cl (stereo not drawn) [Example 137, N-[4-(1-Allyl-pyrrolidin-3-yl)-2-methoxy-phenyl]-4-isopropyl-benzenesulfonamide, hydrochloride]",Ki,[1],0.36 nM
same,Ki(D2)*/Ki(D3)*,[1],12
